Key:
TLR3 = molecular target: T1, TLR3 (Mus musculus, UniProt Q99MB1); assay: TLR multiplex sensor, EIS film resistance before/after exposure (Example 5), TLR3 sensor; format: binding; settings: exposure 20 minutes
T1 sequence (Q99MB1 26-905): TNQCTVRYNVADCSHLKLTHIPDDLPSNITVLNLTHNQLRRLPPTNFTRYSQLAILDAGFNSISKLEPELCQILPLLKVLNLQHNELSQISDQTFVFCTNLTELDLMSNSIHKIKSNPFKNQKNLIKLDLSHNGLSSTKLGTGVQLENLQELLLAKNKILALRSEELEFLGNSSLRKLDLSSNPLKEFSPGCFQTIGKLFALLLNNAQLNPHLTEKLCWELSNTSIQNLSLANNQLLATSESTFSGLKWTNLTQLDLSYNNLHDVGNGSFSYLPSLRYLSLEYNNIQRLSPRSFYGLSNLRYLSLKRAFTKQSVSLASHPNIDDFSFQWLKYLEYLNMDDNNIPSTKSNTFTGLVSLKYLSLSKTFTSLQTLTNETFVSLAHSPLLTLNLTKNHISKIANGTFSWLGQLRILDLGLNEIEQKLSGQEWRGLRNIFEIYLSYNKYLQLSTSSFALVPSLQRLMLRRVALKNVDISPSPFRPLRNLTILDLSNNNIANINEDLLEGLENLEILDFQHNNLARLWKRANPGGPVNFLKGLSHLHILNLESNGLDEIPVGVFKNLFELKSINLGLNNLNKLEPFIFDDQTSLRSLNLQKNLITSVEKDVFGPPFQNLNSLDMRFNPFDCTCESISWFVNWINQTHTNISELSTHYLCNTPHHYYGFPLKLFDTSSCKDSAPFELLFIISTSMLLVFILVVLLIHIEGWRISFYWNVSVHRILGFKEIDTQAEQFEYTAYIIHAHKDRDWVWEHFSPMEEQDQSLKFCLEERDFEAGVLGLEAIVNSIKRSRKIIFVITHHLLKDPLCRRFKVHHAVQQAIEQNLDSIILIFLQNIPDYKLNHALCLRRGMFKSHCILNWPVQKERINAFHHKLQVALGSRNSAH
Description: For each multiplex TLR sensor, 5 separate gold electrodes were used for binding TLR 1 to 5. The 5 modified electrodes/sensors were exposed to the analyte solution and evaluated one by one using potentiostats and electrochemical cells.
The preparation of each TLR biosensor was evaluated using EIS. It is understood that cyclic voltammetry as well as electrochemical impedance microscopy can also be used for monitoring the modification. […] Ethanolamine was then applied to deactivate unreacted LPA. Due to dissociation of unspecific absorbed TLR, the Rct dropped slightly. Experimental curves were evaluated using a model to obtain the Rct values, which can be seen at FIG. 9. Measurements from at least triplicated samples prepared were used to obtain statistic information.
The TLR1 sensor was exposed to an E. coli K12 whole-cell buffer solution for 20 minutes. The sensor was then removed, washed thoroughly and characterized in the electrochemical cell measuring the Rct again. The difference in Rct before and after exposure is the response triggered by the target. The same protocol was carried out for all remaining TLRs (TLRs 2-5) to obtain one set of pattern for E. coli K12 (FIGS. 10b to 10e). Multiple sets were investigated for statistical relevance. […]

rmTLR4/MD-2 = molecular target: T2, rmTLR4/MD-2 (Mus musculus, UniProt Q9JHF9+Q9QUK6); assay: Selectivity test, TLR4/MD-2 sensor, EIS; format: binding; settings: 10 μM
T2 construct: purchased
T2 sequence (Q9QUK6 26-638 limits assumed): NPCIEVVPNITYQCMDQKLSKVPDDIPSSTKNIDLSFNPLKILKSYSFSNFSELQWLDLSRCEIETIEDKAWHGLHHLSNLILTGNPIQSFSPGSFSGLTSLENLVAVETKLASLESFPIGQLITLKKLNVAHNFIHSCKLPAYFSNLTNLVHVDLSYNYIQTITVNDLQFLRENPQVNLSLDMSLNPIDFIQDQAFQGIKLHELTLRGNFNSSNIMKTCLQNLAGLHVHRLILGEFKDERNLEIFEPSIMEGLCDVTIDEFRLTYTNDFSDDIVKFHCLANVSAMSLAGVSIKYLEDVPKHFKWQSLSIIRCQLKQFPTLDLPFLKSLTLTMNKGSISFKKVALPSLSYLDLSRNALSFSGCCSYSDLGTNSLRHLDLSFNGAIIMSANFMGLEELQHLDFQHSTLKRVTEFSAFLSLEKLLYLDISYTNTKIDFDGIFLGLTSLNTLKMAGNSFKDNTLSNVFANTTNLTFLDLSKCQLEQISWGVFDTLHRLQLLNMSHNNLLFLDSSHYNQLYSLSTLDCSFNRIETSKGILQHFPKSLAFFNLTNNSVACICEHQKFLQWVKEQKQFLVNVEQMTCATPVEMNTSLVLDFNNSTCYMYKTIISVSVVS
T2 sequence (Q9JHF9 19-160): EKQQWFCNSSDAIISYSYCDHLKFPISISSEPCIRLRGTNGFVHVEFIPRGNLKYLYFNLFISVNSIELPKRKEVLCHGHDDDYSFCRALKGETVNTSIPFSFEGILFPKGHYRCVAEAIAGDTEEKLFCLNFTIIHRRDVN

Substance: Pam3CSK4
- delta Rct % (TLR3): limited responses
- electrochemical response (selectivity test) (rmTLR4/MD-2): slight signal variations
